Measurements reported in US20240398805A1, “QUINAZOLINE DERIVED COMPOUNDS AS EGFR INHIBITORS AND THEIR USES THEREOF” (ACCUTAR BIOTECHNOLOGY INC., priority 2021, published 2024).

What was measured:
Assay type in all cases: cell-based
HCC827 cells = assay: Cell growth inhibition (CellTiter-Glo, 3 days) in HCC827; settings: Homo sapiens, 72 h, 3 days after administration
Method in brief: (§1)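 HCC827 cells in RPMI/10% FBS and A431 cells in DMEM/10% FBS were seeded at 5000 cells/well and left overnight. Compound was then added over a concentration range for 3 days of incubation, and viability was read by CellTiter-Glo luminescence.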

[1] = test system: HCC827-SVD cells (human EGFR exon 20 insertion mutant D770_N771 insSVD); assay: Cell growth inhibition (CellTiter-Glo, 3 days) in HCC827-SVD; settings: 72 h, 3 days after administration
Method in brief: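 HCC827 cells carrying lentiviral codon-optimized EGFR D770_N771 insSVD, with endogenous EGFR knocked out by CRISPR (single clone), seeded at 5000 cells/well in RPMI with 10% FBS. Viability read by CellTiter-Glo luminescence.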

[2] = test system: HCC827-ASV cells (human EGFR exon 20 insertion mutant A769_D770insASV); assay: Cell growth inhibition (CellTiter-Glo, 3 days) in HCC827-ASV; settings: 72 h, 3 days after administration
Method in brief: (§2)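 HCC827 cells lentivirally transduced with codon-optimized ASV or YVMA insertion mutants were seeded at 5000 cells/well in RPMI with 10% FBS and incubated overnight. Compound was added at various concentrations from a 10× stock in medium, with 3 days' incubation. Viability read by CellTiter-Glo luminescence.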

[3] = test system: HCC827-YVMA cells (human ERBB2 exon20 insertion mutant A775_G776ins YVMA); assay: Cell growth inhibition (CellTiter-Glo, 3 days) in HCC827-YVMA; settings: 72 h, 3 days after administration
Method in brief: as §2

A431 cells = assay: Cell growth inhibition (CellTiter-Glo, 3 days) in A431; settings: Homo sapiens, A-431, 72 h, 3 days after administration
Method in brief: as §1

| Structure (SMILES) | GI50 (HCC827 cells) | GI50 [1] | GI50 [2] | GI50 [3] | GI50 (A431 cells) |
| --- | --- | --- | --- | --- | --- |
| C=CC(=O)N1CCC(Nc2cc3c(Nc4ccc(Oc5ccnc(N6CC7CC7C6)c5)cc4F)ncnc3cc2OC)CC1 (centres unmarked) [Example 199, 1-(4-((4-((4-((2-(3-azabicyclo[3.1.0]hexan-3-yl)pyridin-4-yl)oxy)-2-fluorophenyl)amino)-7-methoxyquinazolin-6-yl)amino)piperidin-1-yl)prop-2-en-1-one] | 0.1 to 0.3 µM | < 0.03 µM | < 0.03 µM | < 0.03 µM | 0.06 to 0.1 µM |
| C=CC(=O)N1CCC(Nc2cc3c(Nc4ccc(Oc5ccnc(N6CCC(C)(C#N)CC6)c5)cc4F)ncnc3cc2OC)CC1 [Example 200, 1-(4-(4-((6-((1-acryloylpiperidin-4-yl)amino)-7-methoxyquinazolin-4-yl)amino)-3-fluorophenoxy)pyridin-2-yl)-4-methylpiperidine-4-carbonitrile] | 0.06 to 0.1 µM | 0.03 to 0.06 µM | 0.03 to 0.06 µM | 0.06 to 0.1 µM | ≥ 1 µM |
| C=CC(=O)N1CCC(Nc2cc3c(Nc4ccc(Oc5ccnc(N6CC(F)(F)C6)c5)cc4F)ncnc3cc2OC)CC1 [Example 201, 1-(4-((4-((4-((2-(3,3-difluoroazetidin-1-yl)pyridin-4-yl)oxy)-2-fluorophenyl)amino)-7-methoxyquinazolin-6-yl)amino)piperidin-1-yl)prop-2-en-1-one] | 0.06 to 0.1 µM | < 0.03 µM | < 0.03 µM | < 0.03 µM | 0.6 to 1 µM |
| C=CC(=O)N1CCC(Nc2cc3c(Nc4ccc(Oc5ccnc(N6CC(C)(C)C6)c5)cc4F)ncnc3cc2OC)CC1 [Example 202, 1-(4-((4-((4-((2-(3,3-dimethylazetidin-1-yl)pyridin-4-yl)oxy)-2-fluorophenyl)amino)-7-methoxyquinazolin-6-yl)amino)piperidin-1-yl)prop-2-en-1-one] | < 0.03 µM | < 0.03 µM | < 0.03 µM | < 0.03 µM | 0.1 to 0.3 µM |
| C=CC(=O)N1CCC(Nc2cc3c(Nc4ccc(Oc5ccnc(N6CC(C)(O)C6)c5)cc4F)ncnc3cc2OC)CC1 [Example 203, 1-(4-((4-((2-fluoro-4-((2-(3-hydroxy-3-methylazetidin-1-yl)pyridin-4-yl)oxy)phenyl)amino)-7-methoxyquinazolin-6-yl)amino)piperidin-1-yl)prop-2-en-1-one] | 0.1 to 0.3 µM | < 0.03 µM | < 0.03 µM | < 0.03 µM | 0.1 to 0.3 µM |
| C=CC(=O)N1CCC(Nc2cc3c(Nc4ccc(Oc5ccnc(N6CC7(CCOCC7)C6)c5)cc4F)ncnc3cc2OC)CC1 [Example 204, 1-(4-((4-((4-((2-(7-oxa-2-azaspiro[3.5]nonan-2-yl)pyridin-4-yl)oxy)-2-fluorophenyl)amino)-7-methoxyquinazolin-6-yl)amino)piperidin-1-yl)prop-2-en-1-one] | 0.06 to 0.1 µM | < 0.03 µM | < 0.03 µM | < 0.03 µM | 0.1 to 0.3 µM |
| C=CC(=O)N1CCC(Nc2cc3c(Nc4ccc(Oc5ccnc(N6CC(C)(C#N)C6)c5)cc4F)ncnc3cc2OC)CC1 [Example 205, 1-(4-(4-((6-((1-acryloylpiperidin-4-yl)amino)-7-methoxyquinazolin-4-yl)amino)-3-fluorophenoxy)pyridin-2-yl)-3-methylazetidine-3-carbonitrile] | < 0.03 µM | < 0.03 µM | < 0.03 µM | < 0.03 µM | 0.1 to 0.3 µM |
| C=CC(=O)N1CCC(Nc2cc3c(Nc4ccc(Oc5ccnc(N6CC(O)(C(F)(F)F)C6)c5)cc4F)ncnc3cc2OC)CC1 [Example 206, 1-(4-((4-((2-fluoro-4-((2-(3-hydroxy-3-(trifluoromethyl)azetidin-1-yl)pyridin-4-yl)oxy)phenyl)amino)-7-methoxyquinazolin-6-yl)amino)piperidin-1-yl)prop-2-en-1-one] | 0.06 to 0.1 µM | < 0.03 µM | < 0.03 µM | < 0.03 µM | 0.1 to 0.3 µM |
| C=CC(=O)N1CCC(Nc2cc3c(Nc4ccc(Oc5ccnc(N6CC(C)(OC)C6)c5)cc4F)ncnc3cc2OC)CC1 [Example 207, 1-(4-((4-((2-fluoro-4-((2-(3-methoxy-3-methylazetidin-1-yl)pyridin-4-yl)oxy)phenyl)amino)-7-methoxyquinazolin-6-yl)amino)piperidin-1-yl)prop-2-en-1-one] | 0.03 to 0.06 µM | < 0.03 µM | < 0.03 µM | < 0.03 µM | 0.1 to 0.3 µM |
| C=CC(=O)N1CCC(Nc2cc3c(Nc4ccc(Oc5ccnc(N6CC(CC#N)C6)c5)cc4F)ncnc3cc2OC)CC1 [Example 208, 2-(1-(4-(4-((6-((1-acryloylpiperidin-4-yl)amino)-7-methoxyquinazolin-4-yl)amino)-3-fluorophenoxy)pyridin-2-yl)azetidin-3-yl)acetonitrile] | 0.1 to 0.3 µM | < 0.03 µM | < 0.03 µM | 0.03 to 0.06 µM | 0.6 to 1 µM |
| C=CC(=O)N1CCC(Nc2cc3c(Nc4ccc(Oc5ccnc(CN6CCCC6)c5)cc4F)ncnc3cc2OC)CC1 [Example 209, 1-(4-((4-((2-fluoro-4-((2-(pyrrolidin-1-ylmethyl)pyridin-4-yl)oxy)phenyl)amino)-7-methoxyquinazolin-6-yl)amino)piperidin-1-yl)prop-2-en-1-one] | 0.1 to 0.3 µM | 0.1 to 0.3 µM | 0.1 to 0.3 µM | 0.06 to 0.1 µM | 0.6 to 1 µM |
| C=CC(=O)N1CCC(Nc2cc3c(Nc4ccc(Oc5ccnc(C(=O)OC)c5)cc4F)ncnc3cc2OC)CC1 [Example 211, methyl 4-(4-((6-((1-acryloylpiperidin-4-yl)amino)-7-methoxyquinazolin-4-yl)amino)-3-fluorophenoxy) picolinate] | ≥ 1 µM | ≥ 1 µM | ≥ 1 µM | 0.6 to 1 µM | ≥ 1 µM |
| C=CC(=O)N1CCC(Nc2cc3c(Nc4ccc(Oc5ccnc(C(=O)O)c5)cc4F)ncnc3cc2OC)CC1 [Example 212, 4-(4-((6-((1-acryloylpiperidin-4-yl)amino)-7-methoxyquinazolin-4-yl)amino)-3-fluorophenoxy) picolinic acid] | ≥ 1 µM | ≥ 1 µM | ≥ 1 µM | ≥ 1 µM | ≥ 1 µM |
| C=CC(=O)N1CCC(Nc2cc3c(Nc4ccc(Oc5ccnc(C6=CCN(C)CC6)c5)cc4F)ncnc3cc2OC)CC1 [Example 213, 1-(4-((4-((2-fluoro-4-((1′-methyl-1′,2′,3′,6′-tetrahydro-[2,4′-bipyridin]-4-yl)oxy)phenyl)amino)-7-methoxyquinazolin-6-yl)amino)piperidin-1-yl)prop-2-en-1-one] | 0.3 to 0.6 µM | 0.3 to 0.6 µM | 0.1 to 0.3 µM | 0.3 to 0.6 µM | ≥ 1 µM |
| C=CC(=O)N1CCC(Nc2cc3c(Nc4ccc(Oc5ccnc(N6CCC[C@@H](O)C6)c5)cc4F)ncnc3cc2OC)CC1 [Example 214, (R)-1-(4-((4-((2-fluoro-4-((2-(3-hydroxypiperidin-1-yl)pyridin-4-yl)oxy)phenyl)amino)-7-methoxyquinazolin-6-yl)amino)piperidin-1-yl)prop-2-en-1-one] | 0.3 to 0.6 µM | 0.03 to 0.06 µM | < 0.03 µM | < 0.03 µM | ≥ 1 µM |
| C=CC(=O)N1CCC(Nc2cc3c(Nc4ccc(Oc5ccnc(N6CCC[C@@H](N)C6)c5)cc4F)ncnc3cc2OC)CC1 [Example 217, (R)-1-(4-((4-((4-((2-(3-aminopiperidin-1-yl)pyridin-4-yl)oxy)-2-fluorophenyl)amino)-7-methoxyquinazolin-6-yl)amino)piperidin-1-yl)prop-2-en-1-one] | ≥ 1 µM | 0.3 to 0.6 µM | 0.6 to 1 µM | 0.6 to 1 µM | ≥ 1 µM |
| C=CC(=O)N1CCC(Nc2cc3c(Nc4ccc(Oc5ccnc(N6CCC(F)(F)CC6)c5)cc4F)ncnc3cc2OC)CC1 [Example 218, 1-(4-((4-((4-((2-(4,4-difluoropiperidin-1-yl)pyridin-4-yl)oxy)-2-fluorophenyl)amino)-7-methoxyquinazolin-6-yl)amino)piperidin-1-yl)prop-2-en-1-one] | 0.1 to 0.3 µM | 0.03 to 0.06 µM | 0.03 to 0.06 µM | 0.03 to 0.06 µM | ≥ 1 µM |
| C=CC(=O)N1CCC(Nc2cc3c(Nc4ccc(Oc5ccnc(N6CCCC(F)(F)C6)c5)cc4F)ncnc3cc2OC)CC1 [Example 219, 1-(4-((4-((4-((2-(3,3-difluoropiperidin-1-yl)pyridin-4-yl)oxy)-2-fluorophenyl)amino)-7-methoxyquinazolin-6-yl)amino)piperidin-1-yl)prop-2-en-1-one] | 0.1 to 0.3 µM | < 0.03 µM | < 0.03 µM | < 0.03 µM | 0.3 to 0.6 µM |
| C=CC(=O)N1CCC(Nc2cc3c(Nc4ccc(Oc5ccnc(N6CCCC(C)(O)C6)c5)cc4F)ncnc3cc2OC)CC1 (centres unmarked) [Example 220, 1-(4-((4-((2-fluoro-4-((2-(3-hydroxy-3-methylpiperidin-1-yl)pyridin-4-yl)oxy)phenyl)amino)-7-methoxyquinazolin-6-yl)amino)piperidin-1-yl)prop-2-en-1-one] | 0.1 to 0.3 µM | < 0.03 µM | < 0.03 µM | < 0.03 µM | 0.6 to 1 µM |
